In patent US20110028504A1, “Formulation of radioprotective alpha beta unsaturated aryl sulfones” (ONCONOVA THERAPEUTICS, INC., priority 2005, published 2011):
Marks after values point to notes of the source that are not given here.

How the values were obtained:
[1] = pH stability testing at 75° C. (HPLC); assay type: physicochemical; details: for Concentration of the ON.1210.Na determined by HPLC during the stability study: 75° C.
Description: (§1) The drug is dissolved in different pH buffers as outlined in Table 20. One hundred mL of each solution is prepared in a volumetric flask. Each solution is filtered through a 0.22 um filter. Approximately, four mL of the above solution is placed in 5 ml ampoules and sealed by a propane torch. The pH of the solution is determined at time zero and at each time interval. All the ampoules are placed in a 75° C. constant temperature oven. Any color changes or precipitation in the solution during the sample collection is visually observed. Concentration of the drug is determined at time zero and other time intervals by HPLC.
as §1, with “prepared in volumetric flask.” for “prepared in a volumetric flask.”, “filtered through 0.22 um” for “filtered through a 0.22 um”, “by HPLC. The pH and drug content of each sample are determined.” for “by HPLC.”
The data from the pH stability study is analyzed by plotting Log (conc.) versus time.
The rate constant for the degradation is determined using a linear regression at each individual pH.

[2] = Determination of pKa from saturated solubility at different pH; assay type: physicochemical
Description: The pKa of the weakly acidic drug is determined from pH-solubility data using the equation provided below.
Where Cs=observed solubility and C0=intrinsic solubility of the compound,
Since the drug is weakly acidic, its intrinsic solubility is assumed to be the solubility at a very low pH (pH=4) where the contribution due to ionization is minimal.

## O=C([O-])c1ccc(/C=C/S(=O)(=O)Cc2ccc(Cl)cc2)cc1.[Na+] [ON.1210.Na, (E)-4-Carboxystyryl-4-chlorobenzylsulfone, Sodium Salt]
[1]; pH 7.4 buffer, 3 days, pH of the solution 7.52
  Concentration of the ON.1210.Na determined by HPLC during the stability study: 481.4637 µg/mL
[1]; pH 7.4 buffer, 5 days, pH of the solution 7.44
  Concentration of the ON.1210.Na determined by HPLC during the stability study: 484.009 µg/mL
[1]; pH 7.4 buffer, 10 days, pH of the solution 7.42
  Concentration of the ON.1210.Na determined by HPLC during the stability study: 473.2525 µg/mL
[1]; pH 7.4 buffer, 17 days, pH of the solution 7.41
  Concentration of the ON.1210.Na determined by HPLC during the stability study: 466.5611 µg/mL
[1]; pH 7.4 buffer, 28 days, pH of the solution 7.2
  Concentration of the ON.1210.Na determined by HPLC during the stability study: 434.5598 µg/mL
[1]; pH 7.4 buffer, 35 days, pH of the solution 7.34
  Concentration of the ON.1210.Na determined by HPLC during the stability study: 428.5503 µg/mL
[1]; pH 7.4 buffer, 42 days, pH of the solution 7.36
  Concentration of the ON.1210.Na determined by HPLC during the stability study: 416.3353 µg/mL
[1]; pH 7.4 buffer, 54 days, pH of the solution 7.31
  Concentration of the ON.1210.Na determined by HPLC during the stability study: 403.267 µg/mL
[1]; pH 8.0, 75° C.
  Kobs, first order rate constant for the degradation: 0.0064 day⁻¹
[1]; pH 8.0 buffer, 0 hours, pH of the solution 8.01
  Concentration of the ON.1210.Na determined by HPLC during the stability study: 494.8540 µg/mL
[1]; pH 8.0 buffer, 1 day, pH of the solution 8.08
  Concentration of the ON.1210.Na determined by HPLC during the stability study: 493.8002 µg/mL
[1]; pH 8.0 buffer, 3 days, pH of the solution 8.04
  Concentration of the ON.1210.Na determined by HPLC during the stability study: 485.8134 µg/mL
[1]; pH 8.0 buffer, 5 days, pH of the solution 7.98
  Concentration of the ON.1210.Na determined by HPLC during the stability study: 486.042 µg/mL
[1]; pH 8.0 buffer, 10 days, pH of the solution 7.98
  Concentration of the ON.1210.Na determined by HPLC during the stability study: 462.5487 µg/mL
[1]; pH 8.0 buffer, 17 days, pH of the solution 8.02
  Concentration of the ON.1210.Na determined by HPLC during the stability study: 441.454 µg/mL
[1]; pH 8.0 buffer, 28 days, pH of the solution 7.81
  Concentration of the ON.1210.Na determined by HPLC during the stability study: 398.9563 µg/mL
[1]; pH 8.0 buffer, 35 days, pH of the solution 7.33, new degradation product with retention time 4.52 min
  Concentration of the ON.1210.Na determined by HPLC during the stability study: 249.7589** μg/mL
[1]; pH 8.0 buffer, 42 days, pH of the solution 7.36
  Concentration of the ON.1210.Na determined by HPLC during the stability study: 378.4188 µg/mL
[1]; pH 8.0 buffer, 54 days, pH of the solution 7.9
  Concentration of the ON.1210.Na determined by HPLC during the stability study: 353.5676 µg/mL
[1]; pH 9.0, 75° C.
  Kobs, first order rate constant for the degradation: 0.0104 day⁻¹
[1]; pH 9.0 buffer, 0 hours, pH of the solution 9.02
  Concentration of the ON.1210.Na determined by HPLC during the stability study: 475.7458 µg/mL
[1]; pH 9.0 buffer, 1 day, pH of the solution 9.1
  Concentration of the ON.1210.Na determined by HPLC during the stability study: 463.3368 µg/mL
[1]; pH 9.0 buffer, 3 days, pH of the solution 9.12
  Concentration of the ON.1210.Na determined by HPLC during the stability study: 436.1314 µg/mL
[1]; pH 9.0 buffer, 5 days, pH of the solution 8.72
  Concentration of the ON.1210.Na determined by HPLC during the stability study: 422.51 µg/mL
[1]; pH 9.0 buffer, 10 days, pH of the solution 8.74
  Concentration of the ON.1210.Na determined by HPLC during the stability study: 379.1650 µg/mL
[1]; pH 9.0 buffer, 17 days, pH of the solution 8.75
  Concentration of the ON.1210.Na determined by HPLC during the stability study: 351.6448 µg/mL
[1]; pH 9.0 buffer, 28 days, pH of the solution 8.53
  Concentration of the ON.1210.Na determined by HPLC during the stability study: 304.3917 µg/mL
[1]; pH 9.0 buffer, 35 days, pH of the solution 8.46, two new degradation products with retention time of 4.52 and 3.6 minutes
  Concentration of the ON.1210.Na determined by HPLC during the stability study: 199.584*** μg/mL
[1]; pH 9.0 buffer, 42 days, pH of the solution 8.45
  Concentration of the ON.1210.Na determined by HPLC during the stability study: 300.1106 µg/mL
[1]; pH 9.0 buffer, 54 days, pH of the solution 8.47
  Concentration of the ON.1210.Na determined by HPLC during the stability study: 267.741 µg/mL
[2]; aqueous buffer, thermodynamic from solid, assumed to be the solubility at pH 4, read-out: intrinsic solubility
  Solubility: 0.154 µg/mL
[2]; calculated from solubility at pH 5
  pKa: 2.61
[2]; calculated from solubility at pH 6
  pKa: 2.33
[2]; calculated from solubility at pH 7.4
  pKa: 2.54
[2]; calculated from solubility at pH 8
  pKa: 2.96
[2]; calculated from solubility at pH 9
  pKa: 3.82
